In patent publication US20180280528A1, “ANTIFOLATE CONJUGATES FOR TREATING INFLAMMATION” (ENDOCYTE, INC., priority 2015, published 2018):
Where two headings read alike, the source gives them in different places.

Key:
[1] = tested on: Rat adjuvant arthritis (AIA); test: Rat adjuvant arthritis (AIA) treatment studies; type: in vivo
Experimental: Female Lewis rats (175-200 g) were purchased from Harlan Sprague Dawley (Indianapolis, Ind.) and allowed to acclimate for 1 week. Generally, rats were fed a folate-deficient diet (Harlan Teklad) for 9-10 days prior to arthritis induction.
Rat adjuvant arthritis (AIA) was induced by intradermal inoculation (at the base of tail) of 0.45-0.46 mg of heat-killed Mycobacteria butyricum (BD Diagnostic Systems, Sparks, Md.) in 100 μL light mineral oil (Sigma). […] During the course of disease development, animals were weighed at least 3 times a week. Paw edema (degree of arthritis) were scored 3 times a week as follows: 0=no edema or arthritis; 1=swelling in one type of joint; 2=swelling in two types of joint; 3=swelling in three types of joint; 4=swelling of the entire paw. A total score for each rat is calculated by adding up the scores for each of the four paws, giving a maximum of 16 per animal.
On the first day of treatment, rats with desired arthritis scores were distributed evenly across the control and treatment groups (n=5). […] All compounds and conjugates were administered subcutaneously (s.c.) starting 9 days after arthritis induction with biweekly (BIW, Mondays and Thursdays) or once-a-week (QW, Mondays) dosing for two consecutive weeks. At the completion of each study (˜4 days after the last treatment), rats were euthanized by CO2 asphyxiation and processed for paw weight (cut at the hairline) and spleen weight.
The rat AIA model resembles many characteristics of human rheumatoid arthritis and it is very aggressive. […] The animals in the AIA control group were left untreated.

[2] = Plasma protein binding by ultrafiltration, dog plasma; type: in vitro ADME; conditions: 500 nM
Experimental: EC2319 and EC1669 plasma protein binding was evaluated by ultra filtration using VWR 30K MWCO modified PES filters. 250 μL of 500 nM EC2319 or EC1669 in K3EDTA plasma incubated at 37° C. was added to the upper filter vessel. 50 μL was immediately removed as the donor plasma sample and aliquoted into a clean 1.2 mL plate. […] An aliquot of […] plasma ultrafiltrate was then added to the 1.2 mL plate as the receiver sample. To each plasma sample, 50 μL of plasma ultrafiltrate was added, and each ultrafiltrate sample received 50 μL of plasma to mitigate matrix effects. N-Maleoyl-β-alanine, mannitol, and acetic acid were added at the end of each experiment to stabilize the samples prior to LC-MS/MS analysis.

[3] = Release of aminopterin in rat hepatic cytosol; type: in vitro ADME; conditions: 5% rat liver cytosol, 1 hour; for pH dependence of aminopterin release from the conjugate: pH 4.5, 6.0, 7.4, 37° C.
Experimental: EC2319 and EC1669 were incubated in 5% rat, dog, and human hepatic cytosol at different pH's to look at release of aminopterin from these conjugates. Liver cytosols from male Sprague-Dawley rats (Lot No. 1110428), male beagle dogs (Lot no. 1310024), and male humans (Lot No. 0710493), all containing 10 mg/mL protein, were obtained from Xenotech LLC (Lenexa, Kans.). These were diluted 20× in either 0.5 M sodium acetate buffer, pH 4.5, 0.5 M sodium acetate buffer, 6.0, or 0.5 M potassium phosphate buffer, pH 7.4 in a final volume of 500 μL. Reactions were initiated by the addition of 1 μL of either EC2319 or EC1669 and the reaction mixtures incubated at 37° C. for 1 hour. At the end of the incubation, a 100 μL aliquot was withdrawn into a cluster tube and the reaction was terminated by the addition of 5 μL of stabilizer solution (containing 8.5 mg/ml N-Maleoyl-β-alanine, 20 mg/mL mannitol and 0.075% acetic acid) and 100 μL of acetonitrile containing d5-aminopterin. The tubes were vortexed and then centrifuged at 4000 rpm for 10 minutes (Eppendorf centrifuge 5810R). 150 μL of the supernatant was transferred to 96-well plates and the acetonitrile evaporated off under nitrogen at 35° C. for 5 minutes. The extract was diluted with 50 μL of mobile phase A. The plate was vortexed on a VX-2500 multi-tube vortexer (VWR International, Radnor, Pa.) and the extract analyzed by LC-MS/MS.

[4] = Incubation with AIA rat macrophage cell lysates; type: in vitro ADME; conditions: AIA rat macrophage lysate, pH 4.5, 37° C., 2 hours
Experimental: Prior to immunization with adjuvant, female Lewis rats were fed a folate-deficient diet (Harlan Teklad, Indianapolis, Ind.) for approximately 10 days to reduce serum folate competition from high-folate-containing regular rodent chow. The rats were then inoculated intradermally (at the base of tail) with 0.5 mg heat-killed M. butyricum (BD Diagnostic Systems, Franklin Lakes, N.J.) in 100 μL light mineral oil (Sigma-Aldrich, St Louis, Mo., USA). The rats were then allowed to develop arthritis scores between 3 and 4 as described in Lu et al. (Arthritis Research & Therapy 2011, 13:R56). After rats developed severe joint inflammation, AIA rat peritoneal cells were isolated, plated, and whole cell lysates were prepared as described above with the exception that the lysates were resuspended in 0.1 M sodium acetate buffer, pH 4.5, to make a concentration of cell lysates equivalent to 10 million cells/mL of 0.1 M sodium acetate buffer, pH 4.5.
To 100 μL AIA rat macrophage, RAW264.7 or THP-1 FRβ cell lysates (each containing 10 million cells/mL 0.1 M sodium acetate, Ph 4.5) was added 2 μL of a 50 μM solution of EC2319 or EC1669 (Endocyte, Inc.). The solutions were incubated at 37° C. in a heat block (VWR International, Radnor, Pa.) for 2 hours. The reaction was terminated by the addition of 5 µL of stabilizer solution and 100 μL of acetonitrile containing d5-aminopterin (Endocyte, Inc.). […]

[5] = 500 nM, 37° C., two hours
Experimental: Blood samples were maintained at 37° C. for 30 minutes prior to spiking the analyte into 2.5 mL blood at 500 nM. At time 0 and every 30 minutes for two hours, blood samples were removed and centrifuged at 2000×g for 10 minutes to generate plasma. 50 μL aliquots of generated plasma were then transferred to a clean 1.2 mL plate containing N-Maleoyl-β-alanine, mannitol, and acetic acid. Samples were stored at −80° C. until being thawed for LC-MS/MS analysis.

| SMILES | body weight ([1]; Study 2, 500 nmol/kg, BIW) | residual disease ([1]; Study 2, 500 nmol/kg, BIW) | anti-arthritic activity ([1]; Study 3, 500 nmol/kg, BIW) | body weight ([1]; Study 3, 500 nmol/kg, BIW) | plasma protein binding [2] | pH dependence of aminopterin release from the conjugate [3] | aminopterin release [4] | alleviating AIA symptoms (arthritis score, paw weight, spleen weight) ([1]; Study 1, 1000 nmol/kg, QW, s.c., two consecutive weeks) | anti-arthritic activity with concurrent EC0923 (arthritis score, paw weight, spleen weight, body weight) ([1]; Study 2, 500 nmol/kg BIW plus 500-fold molar excess EC0923 (250 μmol/kg)) | reducing arthritis scores and paw weights ([1]; Study 2, 500 nmol/kg, BIW, s.c., two consecutive weeks) | decreasing arthritis score, paw weight, and spleen weight ([1]; Study 3, 500 nmol/kg, BIW, two consecutive weeks) | magnitude of aminopterin release ([3]; 37° C.) | whole blood stability (percent remaining of intact conjugate, formation of EC1886) ([5]; fresh human blood) | whole blood stability (percent remaining of intact conjugate, formation of EC1886) ([5]; fresh rat blood) |
| --- | --- | --- | --- | --- | --- | --- | --- | --- | --- | --- | --- | --- | --- | --- |
| N=c1[nH]c(N)nc2ncc(CNc3ccc(C(=O)N[C@@H](CCC(=O)NNC(=O)OCCSSC[C@@H](NC(=O)[C@H](CCC(=O)NC[C@H](O)[C@@H](O)[C@H](O)[C@H](O)CO)NC(=O)[C@@H](CCC(=O)O)NC(=O)[C@H](CCC(=O)NC[C@H](O)[C@@H](O)[C@H](O)[C@H](O)CO)NC(=O)[C@@H](CCC(=O)O)NC(=O)[C@H](CCC(=O)NC[C@H](O)[C@@H](O)[C@H](O)[C@H](O)CO)NC(=O)CC[C@H](NC(=O)c4ccc(NCc5cnc6nc(N)[nH]c(=O)c6n5)cc4)C(=O)O)C(=O)O)C(=O)O)cc3)nc12 [EC1669, reference compound] | maintained a healthier body weight than EC2285 | minimal residual diseases | significant anti-arthritic activity | maintained a good body weight | high plasma protein binding | broad pH specificity | greater from EC1669 than from EC2319 | – | – | – | – | – | – | – |
| COC(=O)[C@H](CSSC(C)(C)[C@H](NC(=O)[C@H](CCC(=O)NC[C@H](O)[C@@H](O)[C@H](O)[C@H](O)CO)NC(=O)[C@H](CCC(=O)O)NC(=O)[C@H](CCC(=O)NC[C@H](O)[C@@H](O)[C@H](O)[C@H](O)CO)NC(=O)[C@H](CCC(=O)O)NC(=O)[C@H](CCC(=O)NC[C@H](O)[C@@H](O)[C@H](O)[C@H](O)CO)NC(=O)CC[C@H](NC(=O)c1ccc(NCc2cnc3nc(N)[nH]c(=O)c3n2)cc1)C(=O)O)C(=O)O)NC(=O)CC[C@H](NC(=O)c1ccc(NCc2cnc3nc(N)nc(N)c3n2)cc1)C(=O)O [EC2319] | maintained a healthier body weight than EC2285 | minimal residual diseases | significant anti-arthritic activity | maintained a good body weight | higher plasma protein binding than did EC1669 | broad pH specificity | aminopterin release was observed | as effective as EC1669, EC2285, and EC2318 | fully blocked by EC0923 | equally efficacious as EC1669 but significantly more active than EC2285 | as efficacious as EC1669 | lower than that from EC1669 | superior stability profile than EC1669 | superior stability profile than EC1669 |
